PMC11788587, “Validating Low‐Dose Iohexol as a Marker for Glomerular Filtration Rate by In Vitro and In Vivo Studies” (Clinical and Translational Science, 2025)

Columns and labels:
[1] = target: T1, hMATE2K (Homo sapiens, UniProt Q86VL8); assay: Substrate assessment: iohexol uptake in 293 cells expressing hMATE2K vs control; type: in vitro ADME; conditions: 10 μM iohexol, median (95% CI)
T1 construct: expressed in transfected cells; host or cells: HEK-293 (293) cells, pEBTetD plasmid, doxycycline-induced
From the text: (§1) We characterized the inhibitory potential of iohexol on major drug transporters recommended by regulatory agencies, which were previously assessed in a clinical transporter phenotyping cocktail study. These transporters include hOAT1, hOAT3, hOCT1, hOCT2, hMATE1, hMATE2K, human organic anion transporter polypeptides (hOATP)1B1, hOATP1B3, and human multidrug resistance protein (hMDR)1. Additionally, we investigated whether iohexol is a substrate for any of the renal transporters among these, including hOAT1/3, hOCT1/2, and hMATE1/2K. Cell‐based uptake assays were used to assess the activities of hOAT1/3, hOCT1/2, hMATE1/2K, and hOATP1B1/1B3. Inside‐out membrane vesicle uptake assays were used to evaluate the activity of hMDR1.
For substrate assessments, iohexol was incubated with stably transfected HEK‐293 cells expressing one of the following transporters: hOAT1, hOAT3, hOCT1, hOCT2, hMATE1, or hMATE2K, as well as with control cells lacking transporter expression. Stably transfected cell lines containing pEBTetD plasmids with wild‐type human transporter cDNAs were generated as previously described. Transporter expression was induced by adding 1 μg/mL doxycycline to the growth medium for at least 20 h. Iohexol would be considered a substrate for these transporters if: (1) the ratio of iohexol uptake in cells expressing the transporter to that in control cells was ≥ 2, and (2) a known inhibitor of the transporter reduced iohexol uptake to ≤ 50% at concentrations ≥ 10 times its inhibition constant or half‐maximal inhibitory concentration.
Uptake assays were performed using stably transfected 293 cells, with or without the expression of one of the following transporters: hOAT1, hOAT3, hOCT1, hOCT2, hMATE1, or hMATE2K, as previously described.^1
For the substrate assessment, cells were incubated with 10 µM iohexol for 10 minutes and 30 minutes for each transporter. Inhibition assays were performed using specific standard substrates for each transporter: 10 µM para-aminohippuric acid (PAH) for hOAT1, 3 µM estrone-3-sulfate (E3S) for hOAT3, 50 µM metformin for hOCT1, 5 µM metformin for hOCT2, and 3 µM 1-methyl-4-phenylpyridinium (MPP+) for hMATE1 and hMATE2K. […]
R version 4.2.1 (R Foundation for Statistical Computing, Vienna, Austria) was used for statistical evaluations and data visualization. The data analysis approach for the in vitro study was detailed by Hsin CH et al..^1 In brief, for transport assays, the initial uptake rate was calculated by normalizing the substrate concentration to both the protein concentration and the incubation time for each dish or well. The transporter-mediated uptake rate (net uptake) was determined by performing an element-wise subtraction of uptake rates from different conditions. […]

[2] = system: OCT2; set-up: method as in ref 15 Yang et al.; conditions: HK‐2 cells; ref 15 Yang et al.; cited from earlier work
[3] = system: hOAT1/3, hOCT1/2, hMATE1/2K, hOATP1B1/3, and hMDR1; assay: Inhibition assays, summary across all transporters; type: cell-based, human
From the text: as §1
To determine the maximal inhibitory potential of iohexol, intracellular accumulation of a standard substrate was measured with and without the clinically relevant highest concentrations of iohexol. Control inhibitors were tested in each experiment.
According to guidelines for assessing TDDIs after intravenous administration, the highest test concentration should be up to 50 times the unbound maximal plasma concentration (Cmax). […]
In all subsequent in vitro studies, control experiments were conducted to validate the results. […] Each condition, including cells or vesicles with the transporter and their respective controls, was analyzed in at least three replicates. […]

T1 sequence (Q86VL8 1-566 isoform Q86VL8-3): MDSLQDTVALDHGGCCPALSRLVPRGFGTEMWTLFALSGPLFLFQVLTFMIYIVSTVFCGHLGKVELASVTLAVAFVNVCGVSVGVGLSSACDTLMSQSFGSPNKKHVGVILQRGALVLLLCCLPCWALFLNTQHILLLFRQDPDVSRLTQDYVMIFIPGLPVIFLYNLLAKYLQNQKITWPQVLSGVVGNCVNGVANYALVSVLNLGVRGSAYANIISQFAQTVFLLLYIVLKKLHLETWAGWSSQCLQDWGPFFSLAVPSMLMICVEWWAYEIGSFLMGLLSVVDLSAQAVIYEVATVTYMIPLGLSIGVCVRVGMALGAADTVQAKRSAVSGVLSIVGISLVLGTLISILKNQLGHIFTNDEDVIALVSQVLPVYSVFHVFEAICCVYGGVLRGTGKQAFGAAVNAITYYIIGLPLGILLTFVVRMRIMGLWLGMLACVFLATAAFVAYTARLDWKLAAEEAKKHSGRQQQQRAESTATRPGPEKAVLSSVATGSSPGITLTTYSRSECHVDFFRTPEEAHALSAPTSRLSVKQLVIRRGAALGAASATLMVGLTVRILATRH

CC(=O)N(CC(O)CO)c1c(I)c(C(=O)NCC(O)CO)c(I)c(C(=O)NCC(O)CO)c1I (stereo not shown) [iohexol]
Differences in intracellular accumulation (expression on minus off) ([1]; 10 minutes): -0.36 (-1.1 to 0.24) pmol/mg protein
Uptake ratio (transporter-expressing vs non-expressing cells) ([1]; 10 minutes): 0.95 (0.81 to 1.1)
Differences in intracellular accumulation (expression on minus off) ([1]; 30 minutes): 0.62 (-0.38 to 1.5) pmol/mg protein
Uptake ratio (transporter-expressing vs non-expressing cells) ([1]; 30 minutes): 1.1 (0.93 to 1.4)
Expression of OCT2 [2]: downregulated
Inhibitor of the transporters (conclusion) ([3]; in vitro, 1–20 mM iohexol): neither a substrate nor a significant inhibitor
Inhibitory effect on transporter-mediated uptake of standard substrates ([3]; iohexol 1 mM and 2 mM): no significant inhibitory effect
